Laboratory results as given in ChEMBL document CHEMBL3297704, “Theophylline-7-acetic acid derivatives with amino acids as anti-tuberculosis agents” (Bioorg Med Chem Lett, 2014).
Values after ≈ are worked out from the molar mass of the structure shown. Counter-ions that a name gives are not always drawn.

How the values were obtained:
HEK-293T = experiment: Cytotoxicity against human 293T cells after 72 hrs by MTT assay; format: cell-based
[1] = test system: Mycobacterium tuberculosis; experiment: Antituberculosis activity against Mycobacterium tuberculosis H37Rv assessed as inhibition of bacterial growth after 45 days; format: functional

Row | SMILES | IC50 (HEK-293T) [µM] | MIC [1] [µM]
1 | COC(=O)[C@H](Cc1cc2ccccc2[nH]1)NC(=O)Cn1cnc2c1c(=O)n(C)c(=O)n2C | > 400 | 0.46 (≈ 0.202 µg/mL)
2 | C[C@H](NC(=O)Cn1cnc2c1c(=O)n(C)c(=O)n2C)C(=O)O | > 400 | 0.65 (≈ 0.201 µg/mL)
3 | Cn1c(=O)c2c(ncn2CC(=O)N[C@@H](Cc2cc3ccccc3[nH]2)C(=O)O)n(C)c1=O | > 400 | 0.47 (≈ 0.199 µg/mL)
4 | CC[C@@H](CO)NCCN[C@@H](CC)CO [ETHAMBUTOL HYDROCHLORIDE] | – | 7.22
